Data as given in ChEMBL document CHEMBL5352492, “Application of deep generative model for design of Pyrrolo[2,3-d] pyrimidine derivatives as new selective TANK binding kinase 1 (TBK1) inhibitors” (Eur J Med Chem, 2023).
Blank lines part the entries; values can stand above or below the molecule they belong to. Active and inactive are the calls of the source. No cut-off for these calls is given here.

Assays:
[1] = target: T1, Serine/threonine-protein kinase TBK1 (Homo sapiens) (UniProt Q9UHD2); experiment: Inhibition of TBK1 (unknown origin) incubated at 100 nM for 1 hr in presence of ATP by FRET based Z'-Lyte assay relative to control
T1 sequence (whole entry): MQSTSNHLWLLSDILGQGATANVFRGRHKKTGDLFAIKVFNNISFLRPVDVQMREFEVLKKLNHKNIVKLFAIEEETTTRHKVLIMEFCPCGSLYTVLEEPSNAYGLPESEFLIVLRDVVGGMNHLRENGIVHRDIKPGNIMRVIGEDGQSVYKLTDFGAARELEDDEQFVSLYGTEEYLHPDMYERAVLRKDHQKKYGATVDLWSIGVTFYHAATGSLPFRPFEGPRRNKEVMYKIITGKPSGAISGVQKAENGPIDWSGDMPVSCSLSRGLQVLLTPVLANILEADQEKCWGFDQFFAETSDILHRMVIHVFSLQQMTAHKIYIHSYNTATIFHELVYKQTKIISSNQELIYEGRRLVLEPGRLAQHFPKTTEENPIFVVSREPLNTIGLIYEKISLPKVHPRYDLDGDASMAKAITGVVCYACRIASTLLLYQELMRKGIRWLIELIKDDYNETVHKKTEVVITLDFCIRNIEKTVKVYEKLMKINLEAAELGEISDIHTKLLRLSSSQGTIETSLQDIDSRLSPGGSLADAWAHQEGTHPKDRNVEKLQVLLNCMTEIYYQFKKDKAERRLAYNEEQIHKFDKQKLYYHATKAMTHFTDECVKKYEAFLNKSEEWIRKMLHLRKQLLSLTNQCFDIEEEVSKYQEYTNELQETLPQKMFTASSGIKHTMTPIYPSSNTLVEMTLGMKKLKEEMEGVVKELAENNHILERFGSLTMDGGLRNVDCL

[2] = target: T2, Serine/threonine-protein kinase TBK1 (Homo sapiens, UniProt Q9UHD2); experiment: Inhibition of TBK1 (unknown origin) incubated for 1 hr in presence of ATP by FRET based Z'-Lyte assay
T2 sequence (Q9UHD2 whole entry): T1 sequence (whole entry)

[3] = target: T1, Serine/threonine-protein kinase TBK1 (Homo sapiens); experiment: Inhibition of TBK1 (unknown origin) incubated at 1000 nM for 1 hr in presence of ATP by FRET based Z'-Lyte assay relative to control
[4] = target: T1, Serine/threonine-protein kinase TBK1 (Homo sapiens); experiment: Inhibition of TBK1 (unknown origin) incubated at 10 nM for 1 hr in presence of ATP by FRET based Z'-Lyte assay relative to control
[5] = target: Platelet-derived growth factor receptor beta (Homo sapiens) (UniProt P09619); experiment: Inhibition of PDGFR-beta (unknown origin) at 100 to 1000 nM relative to control; settings: dose 100-1000 nM
[6] = system: RAW264.7; experiment: Inhibition of LPS-induced cxcl10 in mouse RAW264.7 cells treated for 2 hrs RTq-PCR analysis; type: functional, cell-based; settings: dose 0.1-1 µM
[7] = target: Macrophage colony-stimulating factor 1 receptor (Homo sapiens) (UniProt P07333); experiment: Inhibition of CSF1R (unknown origin) at 100 to 1000 nM relative to control; settings: dose 100-1000 nM
Sequence of Macrophage colony-stimulating factor 1 receptor (Homo sapiens) (P07333 whole entry): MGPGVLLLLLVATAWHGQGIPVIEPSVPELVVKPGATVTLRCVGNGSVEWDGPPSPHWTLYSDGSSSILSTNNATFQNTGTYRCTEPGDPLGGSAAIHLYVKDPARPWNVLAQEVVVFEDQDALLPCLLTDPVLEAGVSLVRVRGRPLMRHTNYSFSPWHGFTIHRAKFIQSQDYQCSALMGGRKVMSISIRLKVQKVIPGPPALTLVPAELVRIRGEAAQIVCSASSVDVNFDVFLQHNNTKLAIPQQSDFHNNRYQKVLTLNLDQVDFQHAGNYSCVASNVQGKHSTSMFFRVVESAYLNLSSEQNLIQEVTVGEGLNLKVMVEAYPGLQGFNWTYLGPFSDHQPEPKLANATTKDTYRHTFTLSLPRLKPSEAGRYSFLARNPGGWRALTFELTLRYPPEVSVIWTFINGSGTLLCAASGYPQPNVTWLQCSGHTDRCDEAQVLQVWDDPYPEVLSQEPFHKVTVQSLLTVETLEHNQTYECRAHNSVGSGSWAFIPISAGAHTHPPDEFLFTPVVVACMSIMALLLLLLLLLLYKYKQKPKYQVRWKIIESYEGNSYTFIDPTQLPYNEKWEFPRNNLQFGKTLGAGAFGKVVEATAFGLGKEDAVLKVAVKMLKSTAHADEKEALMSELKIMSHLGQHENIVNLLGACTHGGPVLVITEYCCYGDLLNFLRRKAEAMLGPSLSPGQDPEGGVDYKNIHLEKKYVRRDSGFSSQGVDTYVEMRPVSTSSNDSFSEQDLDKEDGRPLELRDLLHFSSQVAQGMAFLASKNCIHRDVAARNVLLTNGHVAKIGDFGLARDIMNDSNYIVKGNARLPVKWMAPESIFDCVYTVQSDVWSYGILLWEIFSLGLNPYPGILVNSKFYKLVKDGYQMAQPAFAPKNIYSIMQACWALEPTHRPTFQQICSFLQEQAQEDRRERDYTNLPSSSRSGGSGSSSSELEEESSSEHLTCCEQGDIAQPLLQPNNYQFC

[8] = target: T2, Serine/threonine-protein kinase TBK1; experiment: Inhibition of TBK1 in human THP1-Blue ISG cells by measuring SEAP gene expression incubated for 24 hrs by reporter gene assay; type: cell-based
[9] = target: Tyrosine-protein kinase ABL1 (Homo sapiens) (UniProt P00519); experiment: Inhibition of Abl (unknown origin) at 100 to 1000 nM relative to control; settings: dose 100-1000 nM
Sequence of Tyrosine-protein kinase ABL1 (Homo sapiens) (P00519 whole entry): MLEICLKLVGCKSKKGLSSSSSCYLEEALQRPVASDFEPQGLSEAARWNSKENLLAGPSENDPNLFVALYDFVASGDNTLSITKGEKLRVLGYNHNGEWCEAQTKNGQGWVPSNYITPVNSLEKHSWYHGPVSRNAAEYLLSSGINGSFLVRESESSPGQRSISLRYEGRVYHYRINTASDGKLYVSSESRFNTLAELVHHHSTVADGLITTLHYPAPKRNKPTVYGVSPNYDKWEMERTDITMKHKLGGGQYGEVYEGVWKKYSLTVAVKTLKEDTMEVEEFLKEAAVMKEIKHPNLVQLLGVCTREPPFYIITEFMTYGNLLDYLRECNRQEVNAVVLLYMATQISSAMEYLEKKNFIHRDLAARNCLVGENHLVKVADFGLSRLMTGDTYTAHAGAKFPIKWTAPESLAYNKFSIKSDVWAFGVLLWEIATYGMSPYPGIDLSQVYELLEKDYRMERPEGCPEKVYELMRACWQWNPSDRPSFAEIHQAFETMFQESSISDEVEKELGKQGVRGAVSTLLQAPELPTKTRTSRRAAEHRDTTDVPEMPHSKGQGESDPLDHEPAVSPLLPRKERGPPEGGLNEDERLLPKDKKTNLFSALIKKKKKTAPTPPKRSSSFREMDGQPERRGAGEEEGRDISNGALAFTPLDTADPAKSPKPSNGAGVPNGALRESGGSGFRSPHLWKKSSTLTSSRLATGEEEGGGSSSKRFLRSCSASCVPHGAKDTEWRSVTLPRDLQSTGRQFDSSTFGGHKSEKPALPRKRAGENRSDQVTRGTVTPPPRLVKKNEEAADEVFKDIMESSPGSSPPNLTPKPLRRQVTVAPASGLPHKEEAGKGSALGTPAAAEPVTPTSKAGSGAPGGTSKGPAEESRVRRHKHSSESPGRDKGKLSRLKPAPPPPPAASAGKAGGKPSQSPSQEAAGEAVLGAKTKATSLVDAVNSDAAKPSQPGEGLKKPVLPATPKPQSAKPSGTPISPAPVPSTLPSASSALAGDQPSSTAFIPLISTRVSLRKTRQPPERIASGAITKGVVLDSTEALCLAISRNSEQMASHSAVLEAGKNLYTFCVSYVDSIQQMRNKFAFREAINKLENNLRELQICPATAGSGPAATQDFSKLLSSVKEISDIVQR

[10] = target: Macrophage-stimulating protein receptor (Homo sapiens) (UniProt Q04912); experiment: Inhibition of RON (unknown origin) at 100 to 1000 nM relative to control; settings: dose 100-1000 nM
Sequence of Macrophage-stimulating protein receptor (Homo sapiens) (Q04912 25-304 limits assumed): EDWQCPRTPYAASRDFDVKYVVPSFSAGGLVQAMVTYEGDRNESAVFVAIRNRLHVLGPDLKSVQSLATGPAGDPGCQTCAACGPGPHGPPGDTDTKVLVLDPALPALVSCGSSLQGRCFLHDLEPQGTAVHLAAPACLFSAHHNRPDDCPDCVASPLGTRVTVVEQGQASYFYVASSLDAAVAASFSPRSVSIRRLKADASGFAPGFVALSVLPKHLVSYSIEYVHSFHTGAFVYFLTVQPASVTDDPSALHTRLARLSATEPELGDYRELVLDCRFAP
Sequence of Macrophage-stimulating protein receptor (Homo sapiens) (Q04912 310-1400 limits assumed): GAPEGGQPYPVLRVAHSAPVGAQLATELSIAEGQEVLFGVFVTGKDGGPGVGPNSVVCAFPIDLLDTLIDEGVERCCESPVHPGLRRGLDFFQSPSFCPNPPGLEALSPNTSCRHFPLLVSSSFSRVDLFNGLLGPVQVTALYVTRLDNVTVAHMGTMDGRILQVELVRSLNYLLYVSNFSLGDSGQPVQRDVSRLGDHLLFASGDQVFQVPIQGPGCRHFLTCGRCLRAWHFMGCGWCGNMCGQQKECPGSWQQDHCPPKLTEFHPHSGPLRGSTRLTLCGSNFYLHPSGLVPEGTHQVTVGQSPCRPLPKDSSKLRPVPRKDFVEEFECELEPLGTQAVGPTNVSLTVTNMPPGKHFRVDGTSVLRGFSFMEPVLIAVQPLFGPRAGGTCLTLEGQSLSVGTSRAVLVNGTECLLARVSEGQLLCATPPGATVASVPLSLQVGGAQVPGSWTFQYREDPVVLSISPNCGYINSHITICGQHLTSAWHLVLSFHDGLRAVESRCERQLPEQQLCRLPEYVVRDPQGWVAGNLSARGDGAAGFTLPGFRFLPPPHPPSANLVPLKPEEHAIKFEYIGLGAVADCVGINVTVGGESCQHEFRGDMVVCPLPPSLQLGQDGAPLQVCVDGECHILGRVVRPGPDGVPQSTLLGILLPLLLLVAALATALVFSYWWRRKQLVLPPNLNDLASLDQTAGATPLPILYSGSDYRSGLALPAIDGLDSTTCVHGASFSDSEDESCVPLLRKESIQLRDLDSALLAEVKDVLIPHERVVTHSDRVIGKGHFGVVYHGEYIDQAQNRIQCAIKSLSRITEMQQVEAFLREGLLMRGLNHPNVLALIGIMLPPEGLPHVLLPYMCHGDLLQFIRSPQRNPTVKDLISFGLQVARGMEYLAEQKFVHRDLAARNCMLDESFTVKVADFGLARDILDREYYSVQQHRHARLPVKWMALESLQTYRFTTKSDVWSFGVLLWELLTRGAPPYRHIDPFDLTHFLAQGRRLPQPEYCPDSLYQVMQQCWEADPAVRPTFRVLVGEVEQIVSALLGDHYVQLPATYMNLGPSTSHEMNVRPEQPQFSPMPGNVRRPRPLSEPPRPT

[11] = Antiproliferative activity against LLC cells measured after 72 hrs by SRB staining method; type: functional, cell-based; settings: Mus musculus, Lewis lung carcinoma
[12] = target: Ephrin type-B receptor 2 (Homo sapiens) (UniProt P29323); experiment: Inhibition of EPH-B2 (unknown origin) at 100 to 1000 nM relative to control; settings: dose 100-1000 nM
[13] = target: Receptor tyrosine-protein kinase erbB-4 (Homo sapiens) (UniProt Q15303); experiment: Inhibition of ErbB4 (unknown origin) at 100 to 1000 nM relative to control; settings: dose 100-1000 nM
[14] = target: Receptor tyrosine-protein kinase erbB-2 (Homo sapiens) (UniProt P04626); experiment: Inhibition of ErbB2 (unknown origin) at 100 to 1000 nM relative to control; settings: dose 100-1000 nM
[15] = target: Platelet-derived growth factor receptor alpha (Homo sapiens) (UniProt P16234); experiment: Inhibition of PDGFR-alpha (unknown origin) at 100 to 1000 nM relative to control; settings: dose 100-1000 nM
[16] = target: Insulin receptor (Homo sapiens) (UniProt P06213); experiment: Inhibition of IR (unknown origin) at 100 to 1000 nM relative to control; settings: dose 100-1000 nM
[17] = target: Proto-oncogene tyrosine-protein kinase Src (Homo sapiens) (UniProt P12931); experiment: Inhibition of Src (unknown origin) at 100 to 1000 nM relative to control; settings: dose 100-1000 nM
[18] = system: THP1-Blue ISG; experiment: Inhibition of LPS-induced ifn-beta in human THP1-Blue ISG cells treated for 2 hrs RTq-PCR analysis; type: functional, cell-based; settings: dose 0.1-1 µM
[19] = target: Vascular endothelial growth factor receptor 2 (Homo sapiens) (UniProt P35968); experiment: Inhibition of VEGFR2 (unknown origin) at 100 to 1000 nM relative to control; settings: dose 100-1000 nM
[20] = system: RAW264.7; experiment: Inhibition of LPS-induced ifn-beta in mouse RAW264.7 cells treated for 2 hrs RTq-PCR analysis; type: functional, cell-based; settings: dose 0.1-1 µM
[21] = target: Tyrosine-protein kinase BTK (Homo sapiens) (UniProt Q06187); experiment: Inhibition of BTK (unknown origin) at 100 to 1000 nM relative to control; settings: dose 100-1000 nM
[22] = system: THP1-Blue ISG; experiment: Inhibition of LPS-induced cxcl10 in human THP1-Blue ISG cells treated for 2 hrs RTq-PCR analysis; type: functional, cell-based; settings: dose 0.1-1 µM
[23] = target: Tyrosine-protein kinase ITK/TSK (Homo sapiens) (UniProt Q08881); experiment: Inhibition of ITK (unknown origin) at 100 to 1000 nM relative to control; settings: dose 100-1000 nM
[24] = target: Mast/stem cell growth factor receptor Kit (Homo sapiens) (UniProt P10721); experiment: Inhibition of KIT (unknown origin) at 100 to 1000 nM relative to control; settings: dose 100-1000 nM
[25] = target: Vascular endothelial growth factor receptor 3 (Homo sapiens) (UniProt P35916); experiment: Inhibition of VEGFR3 (unknown origin) at 100 to 1000 nM relative to control; settings: dose 100-1000 nM
Sequence of Vascular endothelial growth factor receptor 3 (Homo sapiens) (P35916 whole entry): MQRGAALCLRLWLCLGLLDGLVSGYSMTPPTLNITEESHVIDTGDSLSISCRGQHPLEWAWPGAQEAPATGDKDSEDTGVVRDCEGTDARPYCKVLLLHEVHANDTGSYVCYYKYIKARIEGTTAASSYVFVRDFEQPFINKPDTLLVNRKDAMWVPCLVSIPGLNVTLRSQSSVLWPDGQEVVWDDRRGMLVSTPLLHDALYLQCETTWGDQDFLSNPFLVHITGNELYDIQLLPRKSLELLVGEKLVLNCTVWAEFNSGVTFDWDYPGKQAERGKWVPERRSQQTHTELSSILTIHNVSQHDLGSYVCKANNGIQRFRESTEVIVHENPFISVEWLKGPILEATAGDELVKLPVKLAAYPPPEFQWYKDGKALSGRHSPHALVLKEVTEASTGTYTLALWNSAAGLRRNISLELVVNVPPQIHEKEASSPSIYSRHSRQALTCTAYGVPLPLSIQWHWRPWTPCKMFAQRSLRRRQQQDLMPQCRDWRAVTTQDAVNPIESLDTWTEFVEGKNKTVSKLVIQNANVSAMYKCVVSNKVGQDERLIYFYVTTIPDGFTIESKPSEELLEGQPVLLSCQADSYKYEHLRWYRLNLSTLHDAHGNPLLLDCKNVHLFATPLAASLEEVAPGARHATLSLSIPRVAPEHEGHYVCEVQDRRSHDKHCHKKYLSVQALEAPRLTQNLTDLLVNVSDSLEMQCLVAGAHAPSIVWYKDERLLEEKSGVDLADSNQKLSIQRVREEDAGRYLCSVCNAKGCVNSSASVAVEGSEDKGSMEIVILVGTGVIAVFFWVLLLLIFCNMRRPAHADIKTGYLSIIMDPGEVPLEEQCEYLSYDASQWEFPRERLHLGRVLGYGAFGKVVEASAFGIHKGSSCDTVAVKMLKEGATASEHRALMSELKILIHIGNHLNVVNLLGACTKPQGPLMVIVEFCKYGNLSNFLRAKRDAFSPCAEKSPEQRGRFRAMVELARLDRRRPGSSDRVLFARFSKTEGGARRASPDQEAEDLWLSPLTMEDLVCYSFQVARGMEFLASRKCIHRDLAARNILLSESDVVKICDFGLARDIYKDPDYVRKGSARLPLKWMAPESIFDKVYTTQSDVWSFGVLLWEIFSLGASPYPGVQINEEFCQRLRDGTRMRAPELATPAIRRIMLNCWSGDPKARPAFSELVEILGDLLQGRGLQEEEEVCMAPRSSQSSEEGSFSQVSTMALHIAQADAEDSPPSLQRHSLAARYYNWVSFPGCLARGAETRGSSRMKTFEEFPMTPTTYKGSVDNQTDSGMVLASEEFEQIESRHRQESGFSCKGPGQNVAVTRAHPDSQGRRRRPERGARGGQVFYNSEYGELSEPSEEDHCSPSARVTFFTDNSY

[26] = target: Ephrin type-A receptor 2 (Homo sapiens) (UniProt P29317); experiment: Inhibition of EPH-A2 (unknown origin) at 100 to 1000 nM relative to control; settings: dose 100-1000 nM
[27] = system: A549; experiment: Antiproliferative activity against human A549 cells measured after 72 hrs by SRB staining method; type: functional, cell-based; settings: A549, 72 h
[28] = target: Fibroblast growth factor receptor 4 (Homo sapiens) (UniProt P22455); experiment: Inhibition of FGFR4 (unknown origin) at 100 to 1000 nM relative to control; settings: dose 100-1000 nM
[29] = target: Insulin-like growth factor 1 receptor (Homo sapiens) (UniProt P08069); experiment: Inhibition of IGF1R (unknown origin) at 100 to 1000 nM relative to control; settings: dose 100-1000 nM
[30] = target: Fibroblast growth factor receptor 2 (Homo sapiens) (UniProt P21802); experiment: Inhibition of FGFR2 (unknown origin) at 100 to 1000 nM relative to control; settings: dose 100-1000 nM
[31] = target: Vascular endothelial growth factor receptor 1 (Homo sapiens) (UniProt P17948); experiment: Inhibition of VEGFR1 (unknown origin) at 100 to 1000 nM relative to control; settings: dose 100-1000 nM
[32] = target: Activated CDC42 kinase 1 (Homo sapiens) (UniProt Q07912); experiment: Inhibition of ACK1 (unknown origin) at 100 to 1000 nM relative to control; settings: dose 100-1000 nM
[33] = target: Focal adhesion kinase 1 (Homo sapiens) (UniProt Q05397); experiment: Inhibition of FAK (unknown origin) at 100 to 1000 nM relative to control; settings: dose 100-1000 nM
[34] = target: T1, Serine/threonine-protein kinase TBK1 (Homo sapiens); experiment: Inhibition of TBK1 phosphorylation (unknown origin) of downstream signalling effector protein S6K at 1 to 20 uM after 24 hrs by Western blotting analysis; settings: dose 1-20 µM
[35] = target: Proto-oncogene tyrosine-protein kinase receptor Ret (Homo sapiens) (UniProt P07949); experiment: Inhibition of RET (unknown origin) at 100 to 1000 nM relative to control; settings: dose 100-1000 nM
[36] = target: Fibroblast growth factor receptor 1 (Homo sapiens) (UniProt P11362); experiment: Inhibition of FGFR1 (unknown origin) at 100 to 1000 nM relative to control; settings: dose 100-1000 nM
[37] = target: Epidermal growth factor receptor (Homo sapiens) (UniProt P00533); experiment: Inhibition of EGFR (unknown origin) at 100 to 1000 nM relative to control; settings: dose 100-1000 nM
[38] = target: Receptor-type tyrosine-protein kinase FLT3 (Homo sapiens) (UniProt P36888); experiment: Inhibition of Flt-3 (unknown origin) at 100 to 1000 nM relative to control; settings: dose 100-1000 nM
[39] = target: Fibroblast growth factor receptor 3 (Homo sapiens) (UniProt P22607); experiment: Inhibition of FGFR3 (unknown origin) at 100 to 1000 nM relative to control; settings: dose 100-1000 nM
[40] = system: RAW264.7; experiment: Inhibition of LPS-induced cxcl10 in mouse RAW264.7 cells treated at 1 uM for 2 hrs RTq-PCR analysis; type: functional, cell-based
[41] = system: THP1-Blue ISG; experiment: Inhibition of LPS-induced cxcl10 in human THP1-Blue ISG cells treated at 1 uM for 2 hrs RTq-PCR analysis; type: functional, cell-based
[42] = system: THP1-Blue ISG; experiment: Inhibition of LPS-induced ifn-beta in human THP1-Blue ISG cells treated at 1 uM for 2 hrs RTq-PCR analysis; type: functional, cell-based
[43] = system: RAW264.7; experiment: Inhibition of LPS-induced ifn-beta in mouse RAW264.7 cells treated at 1 uM for 2 hrs RTq-PCR analysis; type: functional, cell-based

Compound: O=C(NCCCn1ccc2cnc(Nc3cccc(CN4CCN(C5COC5)CC4)c3)nc21)C1CCC1
inhibition [1]: 64%
IC50 [2]: 0.05 µM
inhibition [3]: 92.3%
inhibition [4]: 14.7%

Compound: Cc1cc(=O)n(CCCNC(=O)C2CCC2)c2nc(Nc3cccc(CN4CCOCC4)c3)ncc12
inhibition [1]: < 0%
inhibition [3]: < 0%
inhibition [4]: < 0%

Compound: O=C(NCCCn1cc(C2CC2)c2cnc(Nc3cccc(CN4CCOCC4)c3)nc21)C1CCC1
inhibition [1]: < 0%
inhibition [3]: < 0%
inhibition [4]: < 0%

Compound: CN1CCN(Cc2cccc(Nc3ncc4ccn(CCCNC(=O)C5CCC5)c4n3)c2)CC1
inhibition [1]: 44.5%
IC50 [2]: 0.0536 µM
inhibition [3]: 72.6%
inhibition [4]: -3.2%

Compound: O=C(NCCCn1ccc2cnc(Nc3cccc(CN4CCOCC4)c3)nc21)C1CCC1
inhibition [1]: 69.7%
IC50 [2]: 0.0667 µM
inhibition [3]: 92.1%
inhibition [4]: 23.3%

Compound: O=C(NCCCn1cc(Cl)c2cnc(Nc3cccc(CN4CCOCC4)c3)nc21)C1CCC1
inhibition [1]: 55.8%
inhibition [3]: 91%
inhibition [4]: 9.6%

Compound: O=C(NCCCNc1nc(Nc2cccc(CN3CCOCC3)c2)ncc1C1CC1)C1CCC1
inhibition [40]: Active
inhibition [41]: Active
inhibition [42]: Active
inhibition [43]: Active

Second part, led by results:

inhibition [1]: < 0%
inhibition [3]: 26.4%
inhibition [4]: < 0%
Compound: N#Cc1cn(CCCNC(=O)C2CCC2)c2nc(Nc3cccc(CN4CCOCC4)c3)ncc12

inhibition [5]: < 35%
inhibition [7]: < 35%
IC50 [8]: 0.566 µM
inhibition [9]: < 35%
inhibition [10]: < 35%
inhibition [12]: < 35%
inhibition [13]: < 35%
inhibition [1]: 66.2%
inhibition [14]: < 35%
inhibition [15]: < 35%
inhibition [16]: < 35%
inhibition [17]: < 35%
inhibition [19]: < 35%
inhibition [21]: < 35%
inhibition [23]: < 35%
inhibition [24]: < 35%
inhibition [25]: < 35%
inhibition [26]: < 35%
IC50 [27]: 17.6 µM
inhibition [28]: < 35%
IC50 [2]: 0.0224 µM
inhibition [3]: 89%
inhibition [29]: < 35%
inhibition [30]: < 35%
inhibition [31]: < 35%
inhibition [32]: < 35%
inhibition [4]: 56.7%
inhibition [33]: < 35%
inhibition [34]: Dose-Dependent Effect
inhibition [35]: < 35%
inhibition [36]: < 35%
inhibition [37]: < 35%
inhibition [38]: < 35%
inhibition [39]: < 35%
Compound: CC(=O)N1CCN(Cc2cccc(Nc3ncc4ccn(CCCNC(=O)C5CCC5)c4n3)c2)CC1
inhibition [6]: Dose-Dependent Effect
IC50 [11]: 9.4 µM
inhibition [18]: Dose-Dependent Effect
inhibition [20]: Dose-Dependent Effect
inhibition [22]: Dose-Dependent Effect

inhibition [1]: 37.1%
inhibition [3]: 84.4%
inhibition [4]: 1.33%
Compound: O=C(NCCCn1cc(Br)c2cnc(Nc3cccc(CN4CCOCC4)c3)nc21)C1CCC1
